Reference: US6916845B2, “Method for prevention and treatment of male and female sexual dysfunction” (priority 1999, dated 2005)

Assays:
[1] = system: rabbit's CC smooth muscle; assay: Relaxation of PHE pre-contracted corpus cavernosum smooth muscle strips in organ chamber; type: cell-based; conditions: for effect of pre-treatment on the relaxation effects of icariin: pre-treatment before icariin
Description: Sixty adults male New Zealand white rabbits(Weight: 2.5-3.0 kg) were used. Rabbits were anesthesia with sodium pentobarbital(50 mg/kg), penis was removed and corpus cavernous tissue were carefully isolated and made into 2×2×6 mm muscle strips for isometric tension was measured in organ chamber in vitro study with polygraph(MP 100 WS:Biopac systems, USA). CC muscle strip was fixed in 10 ml organ chamber containing Tyrode solution and continuously supplied with mixed gas(95% O2 and 5% CO2) and keep temperature at 37° C. The initial resting tensions of muscle strips were set at 2 g and tissue was allowed to equilibrate for 1.5-3.0 hours. Sub-maximal contractile responses to phenylepherine(PHE 5×10^-6 M) were observed and optimal isometric tension was determined. To evaluate the relaxation effects of icariin (the other components magnoflorine, querectin, epimedin A, B and C as the controls) on CC muscle strips, investigated the relaxation effects of different dosage of icariin on muscle strips pre-contracted by PHE. And to investigate the pharmaceutical action mechanism, the effects of […] Nω-nitric-L-arginine(L-NNA), guanylate cyclase antagonist methylene blue and pyrogallol, soluble guanylate cyclase inhibitor 1H-[1,2,4]oxadiazolo[4,3,-a]quinoxalin-1-one (ODQ) on the relaxation effects of icariin on CC.

patients = patients on antihypertensive agent; cited from earlier work
adult male rat = assay: Intracavernosal press (ICP) changes after intracavernosal administration and cavernous nerve electrical stimulation; type: in vivo; conditions: for Inhibiting Effect on Icariin induced Relaxation of CC. (ICP changes): 10 minutes after Icariin 100 μl 10^−4M
Description: Twenty-four male, adult Wistar rats(weight:300-350 g) were used. After anesthetization, the left carotid artery was cannulated to monitor mean arterial pressure (MAP). Bipolar electrodes were positioned on the cavernous nerve (CN); the right cavernous body was cannulated with 26 G needle connected with Biopack MP100 to monitor ICP changes. After intracavemosal administration of 100 μl different concentration Icariin or Reserpine (10^−8M to 10^−4M) respectively, the CN was electrically stimulated (ES) 10 minutes later and ICP and MAP were monitored. In order to investigate the possible mechanism of the effect of icariin on ICP changes, 100 μl different concentration guanylate cyclase inhibitor ODQ (10^−8M-10^−4M) were intracavemosal administrated 10 minutes after Icariin (100 μl 10^−4M) administration into CC, and then the ICP was measured during erection, which was, followed the ES.

[2] = system: cGMP formation in rabbit corpus cavernosum; assay: cGMP formation in corpus cavernosum of penis stimulated with SNP, radioimmunoassay; type: cell-based; conditions: in the presence of SNP
[3] = system: PDE4 isolated from human liver tissue; assay: Inhibition of cAMP specific PDE4, two-step radioisotope procedure; type: biochemical
Description: PDE5 and PDE4 were isolated from human platelets and liver tissue using a Pharmacia FPLC system and Mono Q column. The cyclic nucleotide PDE5/PDE4 activities in FPLC fractions were determined using a modification of the two-step radioisotope procedure ([^3H]GMP/[^3H]AMP).

[4] = system: cGMP formation in clitoris CC of female rabbits; assay: cGMP formation in CC of clitoris stimulated with SNP, radioimmunoassay; type: cell-based, rabbit

In the case of `COc1ccc2c(c1O)-c1c(O)c(OC)cc3c1[C@H](C2)[N+](C)(C)CC3` [magnoflorine], the “relaxation effects on CC” value [1] is reported as “no significant relaxation effects”.

For `NS(=O)(=O)c1cc2c(cc1C(F)(F)F)NC(Cc1ccccc1)NS2(=O)=O` (stereo not drawn) [bendrofluazide], the “sexual dysfunction associated with the agent, % of patients” value (patients) is listed as 36%.

For `O=c1onc2cnc3ccccc3n12` [ODQ, 1H-[1,2,4]oxadiazolo[4,3,-a]quinoxalin-1-one], the “icariin induced relaxation of CC smooth muscle strips after pre-treatment with the named inhibitor” value ([1]; icariin 10^−4M) was 10.45 ± 1.08%, the “icariin induced relaxation of CC smooth muscle strips after pre-treatment with the named inhibitor” value ([1]; icariin 10^−5M) was 1.85 ± 0.35% and the “icariin induced relaxation of CC smooth muscle strips after pre-treatment with the named inhibitor” value ([1]; icariin 10^−6M) was 0.42 ± 0.48%. The “effect of pre-treatment on the relaxation effects of icariin” value (“effect of pre-treatment” below) [1] was “significantly inhibited”, the “Inhibiting Effect on Icariin induced Relaxation of CC. (ICP changes)” value (shortened to “Inhibiting Effect … (ICP changes)”) (adult male rat; ODQ 10^−4M) was 80.24 ± 8.05% and the “Inhibiting Effect … (ICP changes)” value (adult male rat; ODQ 10^−5M) was 58.45 ± 6.00%. For the same molecule, the “Inhibiting Effect … (ICP changes)” value (adult male rat; ODQ 10^−6M) was 23.09 ± 4.29% and the “Inhibiting Effect … (ICP changes)” value (adult male rat; ODQ 10^−7M) was 17.16 ± 1.77%.

In the case of `Oc1cccc(O)c1O` [Pyrogallol, pyrogallol], the “icariin induced relaxation of CC smooth muscle strips after pre-treatment with the named inhibitor” value ([1]; icariin 10^−4M) is reported as 15.68 ± 1.15%, the “icariin induced relaxation of CC smooth muscle strips after pre-treatment with the named inhibitor” value ([1]; icariin 10^−5M) is reported as 3.45 ± 0.73% and the “icariin induced relaxation of CC smooth muscle strips after pre-treatment with the named inhibitor” value ([1]; icariin 10^−6M) is reported as 0.85 ± 0.45%. The “effect of pre-treatment” value [1] was “significantly inhibited”.

With `COC(=O)[C@H]1[C@H]2C[C@@H]3c4[nH]c5cc(OC)ccc5c4CCN3C[C@H]2C[C@@H](OC(=O)c2cc(OC)c(OC)c(OC)c2)[C@@H]1OC` [Reserpine, reserpine] the “Inhibiting effects on ICP” value (adult male rat; Reserpine 10^−4M intracavernosal) was 59.63%, the “Inhibiting effects on ICP” value (adult male rat; Reserpine 10^−5M intracavernosal) was 33.34% and the “Inhibiting effects on ICP” value (adult male rat; Reserpine 10^−6M intracavernosal) was 17.39%. The “Inhibiting effects on ICP” value (adult male rat; Reserpine 10^−7M intracavernosal) was 4.81% and the “sexual dysfunction associated with the agent, % of patients” value (patients) was 30-40%.

For `CCCc1nn(C)c2c(=O)[nH]c(-c3cc(S(=O)(=O)N4CCN(C)CC4)ccc3OCC)nc12` [Sildenafil], the cGMP concentration changes ([2]; 10^−3M) was 12.35 ± 2.56 fmol/mg/min, the cGMP concentration changes ([2]; 10^−4M) was 11.98 ± 2.39 fmol/mg/min and the cGMP concentration changes ([2]; 10^−5M) was 12.69 ± 2.24 fmol/mg/min. The cGMP concentration changes ([2]; 10^−6M) was 10.65 ± 2.28 fmol/mg/min, the EC50 ([2]; Oryctolagus cuniculus, read-out: EC50 (cGMP formation, CC of penis)) was 310 nM and the IC50 [3] was 14600 nM. The “cGMP concentration in clitoris CC” value [4] was “significantly increased” and the EC50 ([4]; Oryctolagus cuniculus, stimulated with SNP, read-out: EC50 (cGMP formation, CC of clitoris)) was 310 nM.

In the case of `NC(=NCCC[C@H](N)C(=O)O)N[N+](=O)[O-]` [L-NNA, Nω-nitric-L-arginine], the “icariin induced relaxation of CC smooth muscle strips after pre-treatment with the named inhibitor” value ([1]; icariin 10^−4M) is reported as 15.68 ± 1.15%, the “icariin induced relaxation of CC smooth muscle strips after pre-treatment with the named inhibitor” value ([1]; icariin 10^−5M) is reported as 3.23 ± 0.89% and the “icariin induced relaxation of CC smooth muscle strips after pre-treatment with the named inhibitor” value ([1]; icariin 10^−6M) is reported as 0.82 ± 0.58%. The “effect of pre-treatment” value [1] was “significantly inhibited”.

With `COc1ccc(Cc2nccc3cc(OC)c(OC)cc23)cc1OC` [Papaverine, papaverine] the cGMP concentration changes ([2]; 10^−3M) was 11.43 ± 65 fmol/mg/min, the cGMP concentration changes ([2]; 10^−4M) was 9.82 ± 2.16 fmol/mg/min and the cGMP concentration changes ([2]; 10^−5M) was 8.92 ± 1.87 fmol/mg/min. It also gave a cGMP concentration changes ([2]; 10^−6M) of 8.66 ± 2.07 fmol/mg/min.

For `C[C@](N)(Cc1ccc(O)c(O)c1)C(=O)O` [alpha-methyldopa], the “sexual dysfunction associated with the agent, % of patients” value (patients) is listed as 20-30%.

For `COc1ccc(-c2oc3c(CC=C(C)C)c(O[C@@H]4O[C@H](CO)[C@@H](O)[C@H](O)[C@H]4O)cc(O)c3c(=O)c2O[C@@H]2O[C@@H](C)[C@H](O)[C@@H](O)[C@H]2O[C@@H]2O[C@@H](C)[C@H](O)[C@@H](O)[C@H]2O)cc1` [epimedin C], the “relaxation effects on CC” value [1] was “no significant relaxation effects”.

With `COc1ccc(-c2oc3c(CC=C(C)C)c(OC4OC(CO)C(O)C(O)C4O)cc(O)c3c(=O)c2OC2OC(C)C(O)C(O)C2OC2OC(CO)C(O)C(O)C2O)cc1` (stereo not drawn) [epimedin A] the “relaxation effects on CC” value [1] was “no significant relaxation effects”.

In the case of `O=c1c(O)c(-c2ccc(O)c(O)c2)oc2cc(O)cc(O)c12` [querectin], the “relaxation effects on CC” value [1] is reported as “no significant relaxation effects”.

For `Clc1cccc(Cl)c1NC1=NCCN1` [clodidine], the “sexual dysfunction associated with the agent, % of patients” value (patients) is listed as 41%.

With `COc1ccc(-c2oc3c(CC=C(C)C)c(O[C@@H]4O[C@H](CO)[C@@H](O)[C@H](O)[C@H]4O)cc(O)c3c(=O)c2O[C@@H]2O[C@@H](C)[C@H](O)[C@@H](O)[C@H]2O[C@@H]2OC[C@@H](O)[C@H](O)[C@H]2O)cc1` [epimedin B] the “relaxation effects on CC” value [1] was “no significant relaxation effects”.

In the case of `CN(C)c1ccc2nc3ccc(=[N+](C)C)cc-3sc2c1` [Methylene blue, methylene blue], the “icariin induced relaxation of CC smooth muscle strips after pre-treatment with the named inhibitor” value ([1]; icariin 10^−4M) is reported as 13.45 ± 1.12%, the “icariin induced relaxation of CC smooth muscle strips after pre-treatment with the named inhibitor” value ([1]; icariin 10^−5M) is reported as 2.02 ± 0.45% and the “icariin induced relaxation of CC smooth muscle strips after pre-treatment with the named inhibitor” value ([1]; icariin 10^−6M) is reported as 0.52 ± 0.68%. The “effect of pre-treatment” value [1] was “significantly inhibited”.
